Data published in publication PMC6563076 (2019).

How the values were obtained:
[1] = test system: F10T (DNA, hairpin, hexaethylene glycol (HEG) linker between 10 and 11) TATAGCTATATATAGCTATA; assay: FRET melting; conditions: 10 mM KCl, 90 mM LiCl; 1 μM ligand, 200 nM DNA, 10 mM Li cacodylate; ΔT1/2 used as ΔTm
[2] = test system: FmycT (DNA, G4) TTGAGGGTGGGTAGGGTGGGTAA; assay: FRET melting; conditions: 1 mM KCl, 99 mM LiCl; 1 μM ligand, 200 nM DNA, 10 mM Li cacodylate; ΔT1/2 used as ΔTm
[3] = test system: F21T (DNA, G4) GGGTTAGGGTTAGGGTTAGGG; assay: FRET melting; conditions: 1 μM ligand, 200 nM DNA, 10 mM Li cacodylate, ΔT1/2 used as ΔTm
[4] = test system: telo22 (DNA, G4) AGGGTTAGGGTTAGGGTTAGGG; assay: CD titration; conditions: Na+ (100 mM sodium phosphate); pH 7.4; conformational change similar to telo23
[5] = test system: telo23 (DNA, G4) TAGGGTTAGGGTTAGGGTTAGGG; assay: CD titration; conditions: pH 7.4, 20 °C, 4.22 µM DNA
[6] = test system: telo23 (DNA, G4) TAGGGTTAGGGTTAGGGTTAGGG; assay: 1H NMR; conditions: Na+ (25 mM sodium phosphate, 70 mM NaCl); pH 7.0, 298 K, 175 µM DNA, 2 equivalents ligand; imino signals lost

Row | SMILES | ΔTm [1] [°C] | ΔTm [2] [°C] | ΔTm ([3]; 10 mM KCl, 90 mM LiCl) [°C] | ΔTm ([3]; 100 mM NaCl) [°C] | binding [4] | binding ([5]; K+ (100 mM potassium phosphate), no conformational change, ICD seen) | binding ([5]; Na+ (100 mM sodium phosphate), ligand unfolds the G4) | binding [6]
1 | C[n+]1ccc(-c2ccc3c(c2)/C(=C2/CCc4ccc(-c5cc[n+](C)cc5)cc42)CC3)cc1 | 0.1 ± 0.1 | 5.1 ± 1.4 | 9.7 ± 0.5 | 5.4 ± 1.0 | – | – | – | –
2 | C[n+]1ccc(-c2ccc3c(c2)/C(=C2\CCc4ccc(-c5cc[n+](C)cc5)cc42)CC3)cc1 | 0.8±0.2 | 15.8±0.8 | 21.4±0.3 | 11.8±0.6 | yes | yes | yes | yes
